# Patent publication EP0655065B1, “27-HYDROXYRAPAMYCIN AND DERIVATIVES THEREOF” (AMERICAN HOME PRODUCTS CORPORATION, priority 1992, dated 1994)
# “And” between values parts separate entries of the source, which are not always exact repeats. Identical values can stand only once. Like-named read-outs stand apart in the source and are kept apart here.
# Columns and labels:
# [1] = half life (stability) in 0.1 M phosphate buffer; type: physicochemical; conditions: for half-life: 0.1 m phosphate buffer, pH 7.4
# Description: The 27-hydroxyrapamycin derivatives of formulas II - X are also expected to resist ring degredative reactions better than rapamycin and 31- and/or 42- substituted rapamycin derivatives of rapamycin.
# [2] = system: pinch skin graft from male DBA/2 donors transplanted to male BALB/c recipients; assay: pinch skin graft survival time; type: in vivo; conditions: mean graft survival time, intraperitoneally
# Method: A representative compound of this invention was also evaluated in an in vivo test procedure designed to determine the survival time of pinch skin graft from male DBA/2 donors transplanted to male BALB/c recipients. […] Briefly, a pinch skin graft from the donor is grafted on the dorsum of the recipient as a homograft, and an autograft is used as control in the same region. The recipients are treated with either varying concentrations of cyclosporin A as test control or the test compound, intraperitoneally. Untreated recipients serve as rejection control. The graft is monitored daily and observations are recorded until the graft becomes dry and forms a blackened scab. This is considered as the rejection day. The mean graft survival time (number of days ± S.D.) of the drug treatment group is compared with the control group.
# [3] = system: cells from the thymus of normal BALB/c mice; assay: comitogen-induced thymocyte proliferation procedure (LAF); type: cell-based; conditions: for IC50: read-out: L A F (IC50)
# Method: The comitogen-induced thymocyte proliferation procedure (LAF) was used as an in vitro measure of the immunosuppressive effects of representative compounds. Briefly, cells from the thymus of normal BALB/c mice are cultured for 72 hours with PHA and IL-1 and pulsed with tritiated thymidine during the last six hours. Cells are cultured with and without various concentrations of rapamycin, cyclosporin A, or test compound. Cells are harvested and incorporated radioactivity is determined. Inhibition of lymphoproliferation is assessed as percent change in counts per minute from non-drug treated controls. The results are expressed as an IC50.
Molecule,"half life ([1]; 0.1 M phosphate buffer (pH 7.4, 37° C))","Skin Graft (days + SD) ([2]; dose of 4 mg/kg, 4 mg/kg)","Skin Graft (days + SD) ([2]; dose of 16 mg/kg, 16 mg/kg)","IC50 ([3]; thymocytes cultured 72 hours with PHA and IL-1, tritiated thymidine incorporation)",half-life [1],Skin Graft (days + SD) ([2]; dose of 4 mg/kg),"IC50 ([3]; Mus musculus, Thymocyte, 72 h)","inhibition at 0.1 µM ([3]; Mus musculus, T-cell, at 0.1 µM)","inhibition at 1 µM ([3]; Mus musculus, T-cell, at 1 µM)","IC50 ([3]; Mus musculus, Thymocyte, thymocytes cultured 72 hours with PHA and IL-1, tritiated thymidine incorporation)"
27-Hydroxyrapamycin,17.5 h,8.5 ± 1.2 days and 8.17 ± 0.75 days and 8.00 ± 0.63 days,9.17 ± 0.98^+ days and 9.17 ± 0.75^+ days,3.7 nM,,,,,,
CO[C@H]1C[C@@H]2CC[C@@H](C)[C@@](O)(O2)C(=O)C(=O)N2CCCC[C@H]2C(=O)O[C@H]([C@H](C)C[C@@H]2CC[C@@H](O)[C@H](OC)C2)CC(=O)[C@H](C)/C=C(\C)[C@@H](O)[C@@H](OC)C(=O)[C@H](C)C[C@H](C)/C=C/C=C/C=C/1C [Rapamycin],,,,,11.8 h,12.0 ± 1.7 days,4.8 nM,,,
"CO[C@H]1C[C@@H]2CC[C@@H](C)[C@@](O)(O2)C(=O)C(=O)N2CCCC[C@H]2C(=O)O[C@H]([C@H](C)C[C@@H]2CC[C@@H](O)[C@H](OC)C2)CC(OC(C)=O)[C@H](C)/C=C(\C)[C@@H](O)[C@@H](OC)C(=O)[C@H](C)C[C@H](C)/C=C/C=C/C=C/1C (some centres unmarked) [Example 5, 27-Hydroxyrapamycin-27-ester with acetic acid]",,,,,34 h,,,69%,94%,99 nM
